{"source": "patent US20220133761A1", "about": "“NEUTROPHIL APOPTOSIS INDUCED BY NANOPARTICLES FOR TREATING INFLAMMATORY DISEASES” (WASHINGTON STATE UNIVERSITY, priority 2020, published 2022)", "key": {"[1]": {"experiment": "Serum stability of nanoparticles in PBS with 20% FBS", "assay_type": "physicochemical", "details": "pH 7.4, incubation for 4 days", "description": "Particle size and polydispersity indexes (PDI) were measured using Malvern Zetasizer Nano90 (Westborough, Mass.). The samples were incubated in PBS at pH 7.4 for 2 h, and the measurements were conducted in a 1.0 mL quartz cuvette using a diode laser of 633 nm at 25° C. and a scattering angle was fixed at 90°. To evaluate their serum stability, nanoparticles were dispersed in 20% FBS PBS solution (pH 7.4) at a final concentration of 1 mg/mL. Nanoparticle sizes were measured at the predefined time points. Transmission electron microscopy (TEM) of nanoparticles was also performed using a FEI Technai G2 20 Twin TEM (Hillsboro, Oreg.)."}, "[2]": {"experiment": "pH-triggered DOX release, UV-Vis of supernatants after 2 h incubation", "assay_type": "physicochemical", "description": "To confirm the pH-triggered drug release property, BSA NPs, DOX-ab-BSA NPs and DOX-hyd-BSA NPs were incubated in PBS at pH 7.4, 6.5 and 5.0 for 2 h, respectively. After centrifugation, the supernatants were collected to determine DOX concentrations using a UV-Vis spectrometer."}, "[3]": {"test_system": "differentiated HL60 cells", "experiment": "Uptake of DOX-hyd-BSA NPs by differentiated HL60 cells", "assay_type": "cell-based, human", "details": "10^6 cells/mL, 2 h at different DOX concentrations; time course at 30 μg/mL DOX", "description": "FIG. 5C and FIG. 5D show resultant uptake data of the present application, wherein DOX-hyd-BSA NPs by differentiated HL60 cells were evaluated in vitro."}, "activated neutrophils": {"test_system": "activated neutrophils", "experiment": "Nanoparticle uptake by blood leukocytes in LPS-induced inflammation mouse model (CLSM, flow cytometry)", "assay_type": "in vivo", "description": "To investigate cell uptake specificity of BSA NPs in circulation, blood cells were isolated and studied using confocal laser scanning microscopy (CLSM) and flow cytometry. Briefly, 4 h after LPS challenge (i.p., 20 mg kg^−1), DOX-hyd-BSA NPs were intravenously injected into mice. Healthy mice were used as control. 3 h later, the whole blood was harvested in a heparinized tube from the heart. Neutrophils in blood were isolated by Pluriselect anti-mouse LY-6G S-pluribeads according to the manufacturer's protocol (Pluriselect, Spring Valley, Calif.). The cells were fixed with 2 mL of 4% paraformaldehyde for 30 min and were stained with Alexa Fluor 488-labeled anti-mouse LY-6G antibody. A slide smear of cell solution was prepared by 7620 Cytopro Cytocentrifuge (ELITech, Princeton, N.J.). A drop of Prolong Gold Antifade reagent with DAPI (Invitrogen, Eugene, Oreg.) was added on the cells, and a coverslip was applied on the slide. 4 h later, the cells were observed using a Nikon A1R^+ confocal laser scanning microscope.\nFlow cytometry to quantify neutrophil uptake of nanoparticles was also utilized. Blood leukocytes were isolated to determine the specificity of uptake of NPs in blood. In brief, 3 mL Histopaque 10771 was carefully layered on top of 3 mL Histopaque 11191 in a 15 mL centrifuge tube. […]"}, "LPS-challenged mice [4]": {"test_system": "LPS-challenged mice", "experiment": "Acute lung inflammation mouse model (i.t. LPS), BALF neutrophils and cytokines", "assay_type": "in vivo", "details": "vs free DOX and DOX-ab-BSA NPs", "description": "Mice were anesthetized, and placed in a supine position head up on a board tilted at 15°. Afterwards, 10 mg/kg of LPS in HBSS was intratracheally (i.t.) administrated to mice with a FMJ-250 High Pressure Syringe (Penn-Century, Wyndmoor, Pa.). Mice were held upright for 2 min after administration.\nMice were challenged with i.t. injection of LPS (10 mg/kg). […] At 20 h post-drug administration, the mice were anesthetized with i.v. injection of a mixture of ketamine and xylazine. The BALF was collected by inserting a needle into the upper trachea. 0.9 mL HBSS was infused into the lungs and carefully withdrawn to obtain BALF. This process was repeated three times. BALF was collected and centrifuged at 350 g for 10 min at 4° C. The supernatant was collected for ELISA analysis. Afterwards, the cells were re-suspended in 0.5 ml of HBSS. The total cell number was determined with a hemocytometer.\nFlow cytometry was utilized to quantify neutrophils in BALF. In detail, neutrophils from BALF were washed with 1 mL of 5% BSA in HBSS and centrifuged at 350 g for 10 min at 4° C. for three times, which was finally re-suspended in 400 μL of 5% BSA in HBSS. 3 μL of Alexa Fluor-647-labeled anti-mouse LY-6G antibody was added and incubated for 20 min in the dark, followed by washing with 1 mL of 0.1% BSA in HBSS under centrifugation for three times. Samples were then re-suspended in 400 μL 0.1% BSA in HBSS and filtered by a 100 μm filter, and analyzed by flow cytometer (Accuri C6 flow cytometer, BD Biosciences, San Jose, Calif.).\nBALF was collected and centrifuged at 350 g for 10 min as described above. Supernatants from BALF were harvested for ELISA analysis. Concentrations of TNF-α, IL-6 and IL-1β in supernatants were determined with commercial ELISA kits according to the manufacturer's instructions (Biolegend, San Diego, Calif.). The triplicate experiment was conducted."}, "LPS-challenged mice [5]": {"test_system": "LPS-challenged mice", "experiment": "Therapeutic efficacy in sepsis mouse model (neutrophils, cytokines, MPO in blood, BALF, organs)", "assay_type": "in vivo", "description": "Adult CD-1 mice were i.p. administrated with LPS (50 mg/kg). 4 hours later, the mice were grouped randomly (10 mice per group) and i.v. injected with PBS, free DOX and DOX-hyd-BSA NPs (equal to 0.2 mg kg^−1 of free DOX), respectively. The healthy mice were used as […]. At predetermined time points (16 h and 72 h after LPS challenge), mouse BALF, blood and major organs were collected. Cell number and inflammatory factors (TNF-α, IL-6 and IL-1β) in BALF were determined by hemocytometer and ELISA, respectively as aforementioned. Blood was collected as described above. The plasma was harvested for ELISA assay after the blood was centrifuged at 1500 g for 20 min. Cell number was counted as above. The organs were homogenized with PBS (100 mg/mL) to obtain the pipettable homogenate for myeloperoxidase (MPO) activity and ELISA assay."}, "[6]": {"details": "0.2 mg/kg (DOX) i.v. 4 h after i.t. LPS"}, "[7]": {"details": "first 16 h after LPS challenge, vs PBS"}}, "data": [{"substance": "DOX-hyd-BSA NPs", "values": [{"measurement": "serum stability (aggregation, diameter change)", "setting": "[1]", "result": "no aggregation (diameter change) was observed"}, {"measurement": "DOX absorption at 480 nm in supernatant", "setting": "[2]; pH 5.0 and 6.5, 2 h incubation in PBS", "result": "Absorption of DOX molecules at 480 nm was observed"}, {"measurement": "DOX in supernatant", "setting": "[2]; pH 7.4, 2 h incubation in PBS", "result": "did not observe DOX in the supernatant"}, {"measurement": "DOX uptake by cells", "setting": "[3]", "result": "taken up efficiently"}, {"measurement": "neutrophil uptake of NPs", "setting": "activated neutrophils; 4 h after i.p. LPS 20 mg/kg, blood 3 h after i.v. NPs", "result": "neutrophil uptake was observed"}, {"measurement": "uptake by T cells, monocytes and natural killer (NK) cells in blood", "setting": "activated neutrophils; LPS-challenged mice, flow cytometry", "result": "did not take up BSA NPs"}, {"measurement": "neutrophils in BALF", "setting": "LPS-challenged mice [4]; 0.2 mg/kg (DOX) i.v. 4 h after i.t. LPS 10 mg/kg", "result": "surprisingly and dramatically shown to decrease compared to controls"}, {"measurement": "IL-1β in BALF", "setting": "LPS-challenged mice [4]; [6]", "result": "decreased"}, {"measurement": "IL-6 in BALF", "setting": "LPS-challenged mice [4]; [6]", "result": "decreased"}, {"measurement": "TNF-α in BALF", "setting": "LPS-challenged mice [4]; [6]", "result": "decreased"}, {"measurement": "inflammation in other organs (MPO, TNF-α, IL-6, IL-1β)", "setting": "LPS-challenged mice [5]; 16 h and 72 h post-LPS challenge, vs PBS", "result": "significantly decreased inflammation in other organs"}, {"measurement": "neutrophil number and cytokine contents", "setting": "LPS-challenged mice [5]; 72 h after LPS challenge", "result": "resumed to their levels as in healthy mice"}, {"measurement": "cytokines in blood and lung BALF", "setting": "LPS-challenged mice [5]; [7]", "result": "decreased accordingly"}, {"measurement": "neutrophils in blood and lung BALF", "setting": "LPS-challenged mice [5]; [7]", "result": "dramatically decreased"}, {"measurement": "neutrophil production in the bone marrow", "setting": "LPS-challenged mice [5]; neutrophil counts compared with healthy mice", "result": "did not impair neutrophil production in the bone marrow"}]}]}
